The text below walks through data of patent US20250346585A1 (Alexion Pharmaceuticals, Inc., priority 2022, published 2025).

Structures are written as SMILES.

This test deals with Human complement C1s enzyme (Homo sapiens (Human), UniProt P09871). The experiment in a line: Human C1s enzyme assay. The test is classed as biochemical. The following applies: Human complement C1s enzyme 1.16 nM, substrate Z-L-Lys-SBzl 100 μM, assay of Example 3; read-out: IC50 (Stars). The essentials: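 IC50 derived by nonlinear regression of rate versus concentration, with rate taken from A405 kinetics (30 s intervals, 30 min) after adding 100 μM each Z-L-Lys-SBzl and DTNB. C1s from human serum, 1.16 nM, exposed to compound for 5 min at RT beforehand; buffer 50 mM Tris, 1 M NaCl, pH 7.5.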
Human complement C1s enzyme, sequence (P09871 438-688 limits assumed): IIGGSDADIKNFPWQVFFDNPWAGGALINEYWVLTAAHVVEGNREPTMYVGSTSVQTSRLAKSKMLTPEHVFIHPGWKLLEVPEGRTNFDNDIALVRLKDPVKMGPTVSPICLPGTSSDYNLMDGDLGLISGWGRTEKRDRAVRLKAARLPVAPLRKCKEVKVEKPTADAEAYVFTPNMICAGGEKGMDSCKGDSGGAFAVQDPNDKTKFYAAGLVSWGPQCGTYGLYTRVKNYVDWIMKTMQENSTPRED
Human complement C1s enzyme, sequence (P09871 16-437 partner limits assumed): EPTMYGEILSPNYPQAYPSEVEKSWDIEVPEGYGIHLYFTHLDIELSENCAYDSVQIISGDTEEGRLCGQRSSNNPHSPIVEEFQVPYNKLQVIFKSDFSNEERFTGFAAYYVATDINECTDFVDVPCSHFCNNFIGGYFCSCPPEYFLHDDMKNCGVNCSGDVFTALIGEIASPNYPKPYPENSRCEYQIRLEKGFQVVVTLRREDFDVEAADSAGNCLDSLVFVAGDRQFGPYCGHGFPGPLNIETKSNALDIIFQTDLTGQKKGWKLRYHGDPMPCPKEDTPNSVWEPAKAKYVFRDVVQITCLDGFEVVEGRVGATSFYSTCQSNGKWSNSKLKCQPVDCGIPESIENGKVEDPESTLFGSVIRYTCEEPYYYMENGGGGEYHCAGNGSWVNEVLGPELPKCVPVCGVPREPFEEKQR
One may read the IC50 as the concentration that gives 50% inhibition. In the case of `C[C@@H](NC(=O)[C@@H]1C[C@@H](S(C)(=O)=O)CN1C(=O)CNC(=O)c1ccc2oc3ccccc3c2c1)c1cc(C(=N)N)cs1` [Compound 220, (2S,4R)—N—((R)-1-(4-carbamimidoylthiophen-2-yl)ethyl)-1-((dibenzo[b,d]furan-2-carbonyl)glycyl)-4-(methylsulfonyl)pyrrolidine-2-carboxamide], the IC50 is less than 100 nM.

For `CO[C@@H]1C[C@@H](C(=O)N[C@H](C)c2cc(C(=N)N)cs2)N(C(=O)CNC(=O)c2ccc3oc4ccccc4c3c2)C1` [Compound 221, (2S,4R)—N—((R)-1-(4-carbamimidoylthiophen-2-yl)ethyl)-1-((dibenzo[b,d]furan-2-carbonyl)glycyl)-4-methoxypyrrolidine-2-carboxamide], the IC50 is less than 100 nM.

Turning to `COC[C@@]1(F)C[C@@H](C(=O)N[C@H](C)c2cc(C(=N)N)cs2)N(C(=O)CNC(=O)c2ccc3oc4ccccc4c3c2)C1` [Compound 222, (2S,4R)—N—((R)-1-(4-carbamimidoylthiophen-2-yl)ethyl)-1-((dibenzo[b,d]furan-2-carbonyl)glycyl)-4-fluoro-4-(methoxymethyl)pyrrolidine-2-carboxamide], the IC50 is less than 100 nM.

Turning to `C[C@@H](NC(=O)[C@@H]1C[C@](F)(CF)CN1C(=O)CNC(=O)c1ccc2oc3ccccc3c2c1)c1cc(C(=N)N)cs1` [Compound 223, (2S,4R)—N—((R)-1-(4-carbamimidoylthiophen-2-yl)ethyl)-1-((dibenzo[b,d]furan-2-carbonyl)glycyl)-4-fluoro-4-(fluoromethyl)pyrrolidine-2-carboxamide], the IC50 was less than 100 nM.

`COC[C@@]1(F)C[C@@H](C(=O)N[C@H](C)c2cc(C(=N)N)cs2)N(C(=O)CNC(=O)c2ccc3cc4ccccc4cc3c2)C1` [Compound 224, (2S,4R)-1-[2-(anthracen-2-ylformamido)acetyl]-N-[(1R)-1-(4-carbamimidoylthiophen-2-yl)ethyl]-4-fluoro-4-(methoxymethyl)pyrrolidine-2-carboxamide]: the IC50 is less than 100 nM.

On to `C[C@@H](NC(=O)[C@@H]1CC2(CN1C(=O)CNC(=O)c1ccc3c(c1)-c1cc(F)ccc1C3(F)F)OCCO2)c1cc(C(=N)N)cs1` [Compound 225, (S)—N—((R)-1-(4-carbamimidoylthiophen-2-yl)ethyl)-7-((6,9,9-trifluoro-9H-fluorene-3-carbonyl)glycyl)-1,4-dioxa-7-azaspiro[4.4]nonane-8-carboxamide], for which the IC50 is less than 100 nM.

`C[C@H]1C[C@@H](C(=O)N[C@H](C)c2cc(C(=N)N)cs2)N(C(=O)CNC(=O)c2ccc3oc4ccccc4c3c2)C1` [Compound 226, (2S,4S)—N—((R)-1-(4-carbamimidoylthiophen-2-yl)ethyl)-1-((dibenzo[b,d]furan-2-carbonyl)glycyl)-4-methylpyrrolidine-2-carboxamide]: the IC50 is less than 100 nM.

Take `N=C(N)c1csc(CNC(=O)[C@@H]2CC3(CN2C(=O)CNC(=O)c2ccc(-c4ccc(F)cc4C(=O)O)cc2)OCCO3)c1` [Compound 227, (S)-4′-((2-(8-(((4-carbamimidoylthiophen-2-yl)methyl)carbamoyl)-1,4-dioxa-7-azaspiro[4.4]nonan-7-yl)-2-oxoethyl)carbamoyl)-4-fluoro-[1,1′-biphenyl]-2-carboxylic acid]: the IC50 was less than 100 nM.

`N=C(N)c1csc(CNC(=O)[C@@H]2CC3(CN2C(=O)CN2Cc4cc(-c5ccc(F)cc5F)ccc4C2=O)OCCO3)c1` [Compound 228, (S)—N-((4-carbamimidoylthiophen-2-yl)methyl)-7-(2-(5-(2,4-difluorophenyl)-1-oxoisoindolin-2-yl)acetyl)-1,4-dioxa-7-azaspiro[4.4]nonane-8-carboxamide]: the IC50 was less than 100 nM.

As to `N=C(N)c1csc(CNC(=O)[C@@H]2CC3(CN2C(=O)CN2Cc4ccc(-c5ccc(F)cc5F)cc4C2=O)OCCO3)c1` [Compound 229, (S)—N-((4-carbamimidoylthiophen-2-yl)methyl)-7-(2-(6-(2,4-difluorophenyl)-1-oxoisoindolin-2-yl)acetyl)-1,4-dioxa-7-azaspiro[4.4]nonane-8-carboxamide], the 50% inhibitory concentration (IC50) is less than 100 nM.

Regarding `N=C(N)c1csc(CNC(=O)[C@@H]2CC3(CN2C(=O)CN2Cc4cc(-c5ccc(F)cc5)ccc4C2=O)OCCO3)c1` [Compound 230], the IC50 was less than 100 nM.

Regarding `N=C(N)c1csc(CNC(=O)[C@@H]2CC3(CN2C(=O)CN2Cc4cc(-c5ccccc5)ccc4C2=O)OCCO3)c1` [Compound 231, (S)—N-((4-carbamimidoylthiophen-2-yl)methyl)-7-(2-(1-oxo-5-phenylisoindolin-2-yl)acetyl)-1,4-dioxa-7-azaspiro[4.4]nonane-8-carboxamide], the IC50 is less than 100 nM.

Take `COC[C@@]1(F)C[C@@H](C(=O)N[C@H](C)c2cc(/C(N)=N\C(=O)OC)cs2)N(C(=O)CNC(=O)c2ccc3c(c2)-c2ccccc2C3(F)F)C1` [Compound 232, methyl ((E)-amino(5-((R)-1-((2S,4R)-1-((9,9-difluoro-9H-fluorene-3-carbonyl)glycyl)-4-fluoro-4-(methoxymethyl)pyrrolidine-2-carboxamido)ethyl)thiophen-3-yl)methylene)carbamate]: the IC50 was less than 100 nM.

As for `COC(=O)/N=C(/N)c1csc([C@@H](C)NC(=O)[C@@H]2C[C@](F)(CF)CN2C(=O)CNC(=O)c2ccc(Oc3ccc(F)cc3)cc2)c1` [Compound 233, methyl ((E)-amino(5-((R)-1-((2S,4R)-4-fluoro-4-(fluoromethyl)-1-((4-(4-fluorophenoxy)benzoyl)glycyl)pyrrolidine-2-carboxamido)ethyl)thiophen-3-yl)methylene)carbamate], the IC50 was less than 100 nM.

In the case of `CCCCCCOC(=O)/N=C(/N)c1csc([C@@H](C)NC(=O)[C@@H]2C[C@](F)(CF)CN2C(=O)CNC(=O)c2ccc(Oc3ccc(F)cc3)cc2)c1` [Compound 234, hexyl ((E)-amino(5-((R)-1-((2S,4R)-4-fluoro-4-(fluoromethyl)-1-((4-(4-fluorophenoxy)benzoyl)glycyl)pyrrolidine-2-carboxamido)ethyl)thiophen-3-yl)methylene)carbamate], the IC50 was less than 100 nM.

With `C[C@@H](NC(=O)[C@@H]1C[C@](F)(CF)CN1C(=O)CNC(=O)c1ccc2cc3ccccc3cc2c1)c1cc(C(=N)N)cs1` [Compound 235, (2S,4R)-1-((anthracene-2-carbonyl)glycyl)-N—((R)-1-(4-carbamimidoylthiophen-2-yl)ethyl)-4-fluoro-4-(fluoromethyl)pyrrolidine-2-carboxamide], the IC50 was less than 100 nM.

Consider `Cc1ccccc1[C@H]1C[C@@H](C(=O)N[C@H](C)c2cc(C(=N)N)cs2)N(C(=O)CNC(=O)c2ccc3oc4ccccc4c3c2)C1` [Compound 236, (2S,4R)—N—((R)-1-(4-carbamimidoylthiophen-2-yl)ethyl)-1-((dibenzo[b,d]furan-2-carbonyl)glycyl)-4-(o-tolyl)pyrrolidine-2-carboxamide], for which the IC50 is less than 100 nM.

Turning to `Cc1cc2c(cc1C(=O)NCC(=O)N1CC3(C[C@H]1C(=O)N[C@H](C)c1cc(C(=N)N)cs1)OCCO3)-c1ccccc1C2(F)F` [Compound 237, (S)—N—((R)-1-(4-carbamimidoylthiophen-2-yl)ethyl)-7-((9,9-difluoro-2-methyl-9H-fluorene-3-carbonyl)glycyl)-1,4-dioxa-7-azaspiro[4.4]nonane-8-carboxamide], the IC50 was less than 100 nM.

In the case of `CCS(=O)(=O)[C@@H]1C[C@@H](C(=O)N[C@H](C)c2cc(C(=N)N)cs2)N(C(=O)CNC(=O)c2ccc3c(c2)-c2ccccc2C3(F)F)C1` [Compound 238, (2S,4R)—N—((R)-1-(4-carbamimidoylthiophen-2-yl)ethyl)-1-((9,9-difluoro-9H-fluorene-3-carbonyl)glycyl)-4-(ethylsulfonyl)pyrrolidine-2-carboxamide], the IC50 is less than 100 nM.

For `C[C@@H](NC(=O)[C@@H]1C[C@@H](S(C)(=O)=O)CN1C(=O)CNC(=O)c1ccc2cc3ccccc3cc2c1)c1cc(C(=N)N)cs1` [Compound 239, (2S,4R)-1-((anthracene-2-carbonyl)glycyl)-N—((R)-1-(4-carbamimidoylthiophen-2-yl)ethyl)-4-(methylsulfonyl)pyrrolidine-2-carboxamide], the IC50 is less than 100 nM.

Consider `Cc1ccc(-c2ccc3c(c2)CN(CC(=O)N2CC4(C[C@H]2C(=O)NCc2cc(C(=N)N)cs2)OCCO4)C3=O)c(C)c1` [Compound 240, (S)—N-((4-carbamimidoylthiophen-2-yl)methyl)-7-(2-(5-(2,4-dimethylphenyl)-1-oxoisoindolin-2-yl)acetyl)-1,4-dioxa-7-azaspiro[4.4]nonane-8-carboxamide], for which the IC50 was less than 100 nM.

Consider `COc1cccc(F)c1-c1ccc(C(=O)NCC(=O)N2CC3(C[C@H]2C(=O)NCc2cc(C(=N)N)cs2)OCCO3)cc1` [Compound 241, (S)—N-((4-carbamimidoylthiophen-2-yl)methyl)-7-((2′-fluoro-6′-methoxy-[1,1′-biphenyl]-4-carbonyl)glycyl)-1,4-dioxa-7-azaspiro[4.4]nonane-8-carboxamide], for which the IC50 is less than 100 nM.

With `N=C(N)c1csc(CNC(=O)[C@@H]2CC3(CN2C(=O)CNC(=O)c2ccc(-c4ccc(C(=O)O)cc4F)cc2)OCCO3)c1` [Compound 242, (S)-4′-((2-(8-(((4-carbamimidoylthiophen-2-yl)methyl)carbamoyl)-1,4-dioxa-7-azaspiro[4.4]nonan-7-yl)-2-oxoethyl)carbamoyl)-2-fluoro-[1,1′-biphenyl]-4-carboxylic acid], the IC50 is less than 100 nM.

As to `CO[C@@H]1C[C@@H](C(=O)NCc2cc(NC(=O)CNC(=O)c3ccc(Oc4ccc(F)cc4)cc3)cs2)N(C(=O)CNC(=O)c2ccc(Oc3ccc(F)cc3)cc2)C1` [Compound 243, (2S,4R)-N-((4-(2-(4-(4-fluorophenoxy)benzamido)acetamido)thiophen-2-yl)methyl)-1-((4-(4-fluorophenoxy)benzoyl)glycyl)-4-methoxypyrrolidine-2-carboxamide], the IC50 was greater than 1000 nM.
